Source: patent US11485762B2, “Compositions and methods for inhibition of L-plastin activity in osteoclasts to reduce bone loss” (University of Maryland, Baltimore, priority 2017, dated 2022)

Columns and labels:
Type in all cases: cell-based, mouse
osteoclasts [1] = experiment: Formation of nascent sealing zones (NSZs) in osteoclasts plated on dentine slices (actin staining); details: for formation of NSZs: sNT-LPL peptides, dentine; for formation of NSZs, time course: 3, 6 and 10 hours, LPL and integrin αv immunostaining; for number of NSZs: dentine slices 2-3 hours, versus basal level
Experimental: The vector pTAT-HA has an N-terminal 6-histidine leader (Nagahara et al., 1998, Nature Medicine, 4:1449-1452). […] For transduction with TAT-fused peptides (100-150 nM), osteoclasts were first kept in serum-free α-MEM for two hours. Afterward, TAT proteins of interest, bone particles, and TNF-α were added to cells in serum-free α-MEM Lysates were made from these cells for immunoprecipitation and immunoblotting analyses. Osteoclasts plated on dentine slices in the presence of TAT-proteins of interest and TNF-α for 3-6 hours or 12-14 hours were used for immunostaining or actin staining analyses. Osteoclast cultures treated only with TNF-α were used as controls.
Osteoclast precursors (10^5 cells/coverslips) were cultured on glass cover slips or dentine slices. Fluorescent labeling was done in osteoclasts transduced or untransduced with TAT-proteins. HA or TAT antibody was used to identify the transduced peptides of interest; rhodamine phalloidin was used to determine actin organization (Chellaiah et al., 2000, J. Cell Biol., 148: 665-678; Chellaiah et al., 2000, J. Biol. Chem., 275: 11993-12002). Immunostained and actin stained osteoclasts were photographed with a Bio-Rad confocal laser-scanning microscope. Images were stored in TIF image format and processed by Adobe Photoshop (Adobe Systems Inc., Mountain View. Calif.).
After cells were kept in the serum-free α-MEM medium for two hours, LPL peptides of interest were added to a final concentration of 100-150 nM to cells in serum-free media (Chellaiah et al, 2000, J. Biol. Chem., 275: 11993-12002). Osteoclasts transduced with peptides of interest and added with bone particles in the presence of TNF-α for 3-4 hours or 12-14 hours were used for lysate preparations. Cells plated on coverslips and treated with peptides were used for actin staining to detect podosomes. […] These cells were used for Actin staining with rhodamine-phalloidin or immunostaining analyses (Chellaiah et al., 2000, J. Biol. Chem., 275: 11993-12002; Chellaiah et al., 2000, J. Cell. Biol., 148: 665-678; Chellaiah et al., 2003, J Biol Chem 278: 29086-29097).
Osteoclasts were fixed with 3% paraformaldehyde for 20 minutes and permeabilized with 0.1% Triton X-100 in PBS for 5 minutes. Subsequently, osteoclasts were stained with a primary (HA or integrin αv) and secondary antibody as described (Chellaiah et al., 2003, J Biol Chem 278: 29086-29097). Actin staining was done with rhodamine-phalloidin as described (Chellaiah et al., 2000, J. Biol. Chem., 275: 11993-12002; Chellaiah et al., 2000, J. Cell Biol., 148: 665-678). Cells were washed and mounted on a slide in a mounting solution (Vector Laboratories) and sealed with nail polish. Immunostained osteoclasts were photographed with a Bio-Rad and Nikon confocal microscope. Images were stored in TIF image format and processed by Adobe Photoshop (Adobe Systems Inc., Mountain View, Calif.).

osteoclasts [2] = experiment: Resorption pit formation assay on dentine slices; details: for resorption of dentine matrix: sNT-LPL peptides, 12-16 hours
Experimental: Osteoclasts transduced with TAT-LPL peptides of interest for 30 minutes, were re-plated on dentine slices for 10-12 hours in the presence of TAT-fused peptides of interest and TNF-α. Some cultures were treated with a neutralizing antibody to TNFR-1. Resorption assay was performed as described previously (Chellaiah et al., 2000, J. Cell Biol., 148: 665-678; Chellaiah at al., 2000, J. Biol. Chem., 275: 11993-12002). Resorbed area were also scanned in confocal microscopy. Images were stored in TIF format and processed by Adobe Photoshop (Adobe Systems Inc.) (Chellaiah et al., 2000, J. Cell Biol, 148: 665-678). The resorbed pit areas were quantified and data were compiled from four slices per treatment and per experiment. The resorbed pit areas (20-25 pits/slice) were quantified and data were compiled from four slices per treatment. […] The area of the pit was determined from the free-hand traced perimeter using the LSM software (Chellaiah et al., 2000, J. Cell Biol., 148: 665-678). As per Cosmo Bio recommendations, the results of one experiment was compiled for the presentation.
Resorption was evaluated using dentine slices as described previously (Chellaiah et al., 2000, J. Biol. Chem., 275: 11993-12002). After transduction for 30 minutes, osteoclasts were re-plated on dentine slices for 12-16 hours to detect resorption lacuna in the presence of respective LPL peptide and TNF-α. Each treatment was done in quadruplicates Subsequently, dentine slices were stained with Mayer's acid hematoxylin (Sigma) for 6 minutes followed by washing several times with water. Excess stain in the resorbed area and stained cell debris were removed with a cotton swab. The pits were imaged under an X40 objective in a Zeiss inverted phase contrast microscope fitted with a CCD camera (Chellaiah et al., 2003, J Biol Chem 278: 29086-29097; Chellaiah et al., 2003, Mol Biol Cell, 14: 173-189). Images were stored in TIF format and processed by Adobe Photoshop (Adobe Systems Inc.).

osteoclasts [3] = experiment: F-actin content by rhodamine phalloidin binding; details: for F-actin content: TAT-fused LPL peptides, dentine, TNF-α, versus basal level
Experimental: For the measurement of F-actin, osteoclasts transduced with TAT-LPL peptides of interest for 15 to 30 minutes were re-plated on dentine slices for 3 to 4 hours or 10-12 hours, respectively, in the presence of indicated TAT-fused peptides of interest and TNF-α. For each treatment four to six wells in 24 well, culture dishes were used. Cells were fixed and rhodamine phalloidin binding to F-actin was done as described (Chellaiah et al., 2000, J. Cell Biol., 148: 665-678; Chellaiah et al., 2000, J. Biol. Chem., 275: 11993-12002: Chellaiah et at, 2007, J. Biol. Chem., 282: 10104-10116),
Osteoclasts were transduced with LPL and control peptides. For each treatment four to six wells in 24 well culture dishes were used. Cells were fixed and rhodamine phalloidin binding to F-actin was done as described (Chellaiah et al., 1998, J. Biol. Chem., 273: 11908-11916; Chellaiah et al., 1996, Mol. Biol. Cell, 7: 743-753).

Molecule | formation of NSZs (osteoclasts [1]) | resorption of dentine matrix (osteoclasts [2]) | F-actin level (osteoclasts [3]; sNT-LPL peptides, compared with P2, P5, and P6) | formation of NSZs, time course (osteoclasts [1]) | F-actin content (osteoclasts [3]) | number of NSZs (osteoclasts [1]; TNF-α) | resorption (resorption pits) (osteoclasts [2]; dentine 10-12 hours, TNF-α) | formation of NSZs, lower magnification (FIG. 7) (osteoclasts [1]; dentine slices 3-4 hours, TNF-α)
MARGAVADEE [Peptide P2, TAT-fused sNT-LPL peptide, Ser-5 and Ser-7 substituted to Alanine (A5A7)] | no inhibitory effect | no inhibitory effect | – | – | – | – | – | –
MARGSVSDEE [Peptide P1, TAT-fused small molecular weight (10aa) amino-terminal LPL peptide, unsubstituted (S5S7)] | considerable decrease | Reduced resorption of dentine | decrease was significant | attenuates | – | – | – | –
SRSGMVEEAD [Peptide P5, TAT-fused scrambled sNT-LPL peptide, control, reference compound] | no inhibitory effect | no inhibitory effect | – | time-dependent organization | – | – | – | –
FL-LPL: HA-TAT fused full-length L-plastin protein (70-75 kDa), purified from bacterial expression vector pTAT-HA (protein, UniProt P13796 1-627, looked up, full-length HA-TAT tag, HA-TAT fused full-length L-plastin protein (70-75 kDa), purified from bacterial expression vector pTAT-HA) MARGSVSDEEMMELREAFAKVDTDGNGYISFNELNDLFKAACLPLPGYRVREITENLMATGDLDQDGRISFDEFIKIFHGLKSTDVAKTFRKAINKKEGICAIGGTSEQSSVGTQHSYSEEEKYAFVNWINKALENDPDCRHVIPMNPNTNDLFNAVGDGIVLCKMINLSVPDTIDERTINKKKLTPFTIQENLNLALNSASAIGCHVVNIGAEDLKEGKPYLVLGLLWQVIKIGLFADIELSRNEALIALLREGESLEDLMKLSPEELLLRWANYHLENAGCNKIGNFSTDIKDSKAYYHLLEQVAPKGDEEGVPAVVIDMSGLREKDDIQRAECMLQQAERLGCRQFVTATDVVRGNPKLNLAFIANLFNRYPALHKPENQDIDWGALEGETREERTFRNWMNSLGVNPRVNHLYSDLSDALVIFQLYEKIKVPVDWNRVNKPPYPKLGGNMKKLENCNYAVELGKNQAKFSLVGIGGQDLNEGNRTLTLALIWQLMRRYTLNILEEIGGGQKVNDDIIVNWVNETLREAKKSSSISSFKDPKISTSLPVLDLIDAIQPGSINYDLLKTENLNDDEKLNNAKYAISMARKIGARVYALPEDLVEVNPKMVMTVFACLMGKGMKRV | – | – | – | – | substantial increase above the basal level | substantial increase above the basal level | increase in the number and size (area) of resorption pits | –
mutated FL-LPL: TAT-fused full-length L-plastin with Ser-5 and Ser-7 mutated to Ala-5 and Ala-7 (protein, UniProt P13796 1-627, looked up, variant S5A S7A, full-length HA-TAT tag) MARGAVADEEMMELREAFAKVDTDGNGYISFNELNDLFKAACLPLPGYRVREITENLMATGDLDQDGRISFDEFIKIFHGLKSTDVAKTFRKAINKKEGICAIGGTSEQSSVGTQHSYSEEEKYAFVNWINKALENDPDCRHVIPMNPNTNDLFNAVGDGIVLCKMINLSVPDTIDERTINKKKLTPFTIQENLNLALNSASAIGCHVVNIGAEDLKEGKPYLVLGLLWQVIKIGLFADIELSRNEALIALLREGESLEDLMKLSPEELLLRWANYHLENAGCNKIGNFSTDIKDSKAYYHLLEQVAPKGDEEGVPAVVIDMSGLREKDDIQRAECMLQQAERLGCRQFVTATDVVRGNPKLNLAFIANLFNRYPALHKPENQDIDWGALEGETREERTFRNWMNSLGVNPRVNHLYSDLSDALVIFQLYEKIKVPVDWNRVNKPPYPKLGGNMKKLENCNYAVELGKNQAKFSLVGIGGQDLNEGNRTLTLALIWQLMRRYTLNILEEIGGGQKVNDDIIVNWVNETLREAKKSSSISSFKDPKISTSLPVLDLIDAIQPGSINYDLLKTENLNDDEKLNNAKYAISMARKIGARVYALPEDLVEVNPKMVMTVFACLMGKGMKRV | – | – | – | – | more or less equal | more or less equal | – | did not affect
